Experimental findings from US10016414B2, “Modulation of ubiquitination of synaptic proteins for the treatment of neurodegenerative and psychiatric disorders” (UNIVERSITY OF MASSACHUSETTS, priority 2010, dated 2018) are described below.

Experiment [1] concerns colocalization of Mdm2 with PSD-95. Description: Colocalization of Mdm2 with PSD-95 puncta in cultured hippocampal neurons (immunocytochemistry). The experiment is classed as cell-based, rat. Particulars: roscovitine 10 μM, 45 min; control 100%±24.8%; n=4; mean±SEM. On the procedure: Representative confocal images from each condition are shown; Mdm2 (green) and PSD-95 (red) (scale bars, 10 μm). […] The number of costained puncta, as a percentage of total PSD-95 puncta, are expressed as a percentage of the number for DMSO controls.
(§1) Dissociated hippocampal cultures were prepared from E17-E18 rat brains as described previously (Zhang et al., 2008). Hippocampal neurons were plated on coverslips coated with poly-D-lysine and laminin at a density of 6600/cm2 and grown in Neurobasal medium supplemented with B27 and GlutaMax (Invitrogen) for 17-21 days in vitro (DIV). […] Images from each experiment were thresholded using identical values and analyzed by MetaMorph software. The colocalization was expressed as mean±S.E.M. and statistically compared using Student's t-test.
Mdm2 has been identified as the ubiquitin ligase for PSD-95 in ubiquitination assays and in transfected Mdm2 knockout mouse embryonic fibroblasts (Colledge et al., 2003). […] To investigate whether Cdk5 regulates the interaction between Mdm2 and PSD-95, PSD-95 immunoprecipitated from brain lysates was analyzed in p35 knockout mice and wild-type littermates by immunoblotting with an Mdm2 antibody (FIG. 2A). […]

Another experiment relates to PSD-95 ubiquitination. The experiment in a line: PSD-95 ubiquitination in acute forebrain slices (PSD-95 immunoprecipitation, ubiquitin/FK1/FK2 immunoblot). Particulars: roscovitine 10 μM, 45 min, acute mouse forebrain slices. In kind it is cell-based, mouse. Background: A western blot detects proteins with antibodies after separation by electrophoresis.
The test system of experiment [2] is colocalization of β-adaptin with PSD-95. Description: Colocalization of β-adaptin with PSD-95 puncta in cultured hippocampal neurons. Particulars: roscovitine 10 μM, 45 min; control 100%±15.6%; n=5; mean±SEM. In kind it is cell-based, rat. Here is the method:
C. […] Representative confocal images from each condition are shown; β-adaptin and PSD-95 (scale bars, 10 μm). […] The number of costained puncta, as a percentage of total number of PSD-95 puncta, is expressed as a percentage of the number for DMSO control.
as §1
To assess whether PSD-95 monoubiquitination correlates with increased PSD-95 interaction with AP-2 in vivo, p35 knockout mice were analyzed, which have increased PSD-95 monoubiquitination. PSD-95 immunoprecipitated from brain lysates of p35 knockout and wildtype littermates was analyzed by β-adaptin immunoblot (FIG. 4B).

The subject of the next experiment is PSD-95 protein levels. The experiment in a line: PSD-95 protein levels in acute forebrain slices (immunoblot, normalized to actin). As to conditions: roscovitine 10 μM, 45 min; control 100%±15.8%; n=3; p>0.5. The experiment is classed as cell-based, mouse. On the procedure: PSD-95 immunoreactivity was normalized to that of actin and expressed as a percentage of DMSO control.
Brains of adult p35 knockout mice and control littermates were gifts of Dr. Li-Huei Tsai (MIT). Brain lysates were prepared according to Zhang et al., (2008). Briefly, brains (without cerebellum) were first homogenized and lysed in 1% deoxycholate (DOC) lysis buffer (150 mM NaCl, 1% DOC, 50 mM Tris, pH 8.8), to which an equal volume of modified radioimmunoprecipitation assay (RIPA) buffer was added (150 mM NaCl, 1 mM ethylenediaminetetraacetic acid (EDTA), 1% Triton X-100, 0.1% SDS, 50 mM Tris/HCl pH 7.4) (Kalia et al., 2006). […] Protein concentrations of the lysates were determined by Detergent Compatible Protein Assay (Bio-Rad) and lysates (inputs) were analyzed by western blot to determine whether similar amounts of proteins were used in the experiments. […] Western blots were visualized by enhanced chemiluminescence (ECL, Amersham) and immunoreactive bands were digitally scanned and quantified with ImageJ software (NIH). Values were expressed as mean±S.E.M. and statistically compared using Student's t-test.
Acute forebrain slices were prepared as previously described (Patel et al., 2003; Zhang et al., 2008). […] Values were expressed as mean±S.E.M. and statistically compared using analysis of variance (ANOVA). […]

For the molecule `CC[C@H](CO)Nc1nc(NCc2ccccc2)c2ncn(C(C)C)c2n1` [roscovitine], in experiment [1], the “puncta positive for both PSD-95 and Mdm2 (percentage of DMSO control)” value is on record as 149%±27.4%. In the experiment on PSD-95 ubiquitination, the “increase in PSD-95 ubiquitination” value was “more than 2 fold” and the “kind of PSD-95 ubiquitination (FK2 immunoreactive, FK1 not)” value is “increases PSD-95 monoubiquitination on multiple lysines”. Further, in the experiment on PSD-95 ubiquitination (control 100%±54.5%, n=4, mean±SEM), the “ubiquitination of PSD-95 (ubiquitin immunoreactivity normalized to immunoprecipitated PSD-95, percentage of DMSO control)” value is on record as 274.6%±71.6%. In experiment [2], the “puncta positive for both PSD-95 and β-adaptin (percentage of DMSO control)” value is reported as 192.5%±19%. The “PSD-95 protein levels (normalized to actin, percentage of DMSO control)” value in the experiment on PSD-95 protein levels is 103.7%±18.7%.
